From patent publication US9045445B2, “Glycine transporter-1 inhibitors, methods of making them, and uses thereof” (Albany Molecular Research, Inc., priority 2010, dated 2015)
Structures can show the parent of a compound that is named as a salt. Where two headings read alike, the source gives them in different places.

Experiments:
[1] = target: T1, glycine transporter-1 (GlyT-1) (Homo sapiens, UniProt P48067); assay: [14C]glycine uptake assay in JAR cells endogenously expressing GlyT-1 (scintillation proximity); assay type: cell-based
T1 construct: JAR cells (ATCC#HTB-144), which endogenously express GlyT-1; host or cells: JAR human choriocarcinoma cells
T1 sequence (P48067 1-706): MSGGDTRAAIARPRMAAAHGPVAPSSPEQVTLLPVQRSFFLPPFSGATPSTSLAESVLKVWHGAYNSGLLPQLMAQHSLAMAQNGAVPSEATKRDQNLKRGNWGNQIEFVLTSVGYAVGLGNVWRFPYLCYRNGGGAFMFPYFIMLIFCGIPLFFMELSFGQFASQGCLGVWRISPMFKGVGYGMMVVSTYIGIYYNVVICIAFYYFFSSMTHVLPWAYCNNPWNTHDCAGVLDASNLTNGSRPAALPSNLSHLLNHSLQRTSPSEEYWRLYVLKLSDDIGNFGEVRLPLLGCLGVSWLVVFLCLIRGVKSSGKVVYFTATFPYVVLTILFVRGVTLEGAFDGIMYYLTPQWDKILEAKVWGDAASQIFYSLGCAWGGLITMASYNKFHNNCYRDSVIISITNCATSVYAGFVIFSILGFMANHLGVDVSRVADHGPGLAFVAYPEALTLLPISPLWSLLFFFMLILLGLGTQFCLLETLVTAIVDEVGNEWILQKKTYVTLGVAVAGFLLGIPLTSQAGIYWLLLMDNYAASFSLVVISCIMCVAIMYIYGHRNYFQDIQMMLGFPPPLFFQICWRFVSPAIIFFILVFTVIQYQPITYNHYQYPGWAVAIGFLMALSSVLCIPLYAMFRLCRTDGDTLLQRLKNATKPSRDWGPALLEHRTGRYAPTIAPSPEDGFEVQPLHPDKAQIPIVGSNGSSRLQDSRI
Outline: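 Human choriocarcinoma JAR cells (endogenous GlyT-1) attached overnight, then pre-incubated 10 min at room temperature with compound in pH 7.4 Hepes uptake buffer containing 5 mM alanine and 0.75% DMSO. Uptake of 5 μM [14C]glycine over 3 h at 37 °C read by scintillation proximity; IC50 from four-parameter fit of nine-point curves.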

[2] = target: T2, glycine transporter-2 (GlyT-2) (Homo sapiens, UniProt Q9Y345); assay: [14C]glycine uptake assay in HEK-GlyT-2 transfected cells; assay type: cell-based; conditions: HEK-GlyT-2 cells
T2 construct: expressed in transfected cells
T2 sequence (Q9Y345 1-797): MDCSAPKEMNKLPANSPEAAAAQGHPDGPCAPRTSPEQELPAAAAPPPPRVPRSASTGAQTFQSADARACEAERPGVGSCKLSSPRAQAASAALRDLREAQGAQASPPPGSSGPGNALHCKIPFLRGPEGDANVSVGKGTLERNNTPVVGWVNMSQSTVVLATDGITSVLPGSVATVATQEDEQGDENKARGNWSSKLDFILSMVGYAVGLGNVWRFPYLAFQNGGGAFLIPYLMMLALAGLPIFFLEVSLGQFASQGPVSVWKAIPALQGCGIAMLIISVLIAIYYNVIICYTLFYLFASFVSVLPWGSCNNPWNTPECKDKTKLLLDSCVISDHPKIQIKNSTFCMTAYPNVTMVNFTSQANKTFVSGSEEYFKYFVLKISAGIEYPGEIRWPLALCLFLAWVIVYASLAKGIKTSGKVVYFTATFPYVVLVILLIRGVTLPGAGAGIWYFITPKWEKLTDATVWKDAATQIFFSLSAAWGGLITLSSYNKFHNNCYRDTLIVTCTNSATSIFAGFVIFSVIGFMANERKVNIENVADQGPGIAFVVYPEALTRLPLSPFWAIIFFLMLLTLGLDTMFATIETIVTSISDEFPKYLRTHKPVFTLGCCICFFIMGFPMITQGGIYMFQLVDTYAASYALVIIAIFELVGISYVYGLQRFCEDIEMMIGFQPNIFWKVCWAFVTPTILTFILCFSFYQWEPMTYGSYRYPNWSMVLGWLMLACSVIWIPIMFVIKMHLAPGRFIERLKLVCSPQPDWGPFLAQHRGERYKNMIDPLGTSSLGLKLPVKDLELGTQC

[3] = JAR cells, [14C]glycine 5 μM, 3 hour incubation, read-out: GlyT-1 IC50

Row | Structure (SMILES) | IC50 [1, 3] [nM] | IC50 [2] [µM] | IC50 ([1]; GlyT-1 IC50 (nM)) [nM]
1 | CS(=O)(=O)N1CCN(C2(CNC(=O)c3c(N)cccc3Cl)CCCCC2)CC1 [compound 90, 2-Amino-6-chloro-N-((1-(4-(methylsulfonyl)piperazin-1-yl)cyclohexyl)methyl) benzamide Hydrochloride] | 339 | > 75 | –
2 | CCCS(=O)(=O)N1CCN(C2(CNC(=O)c3c(Cl)cccc3Cl)CCC(F)(F)CC2)CC1 [compound 135, 2,6-Dichloro-N-((4,4-difluoro-1-(4-(propylsulfonyl)piperazin-1-yl)cyclohexyl)methyl) benzamide Hydrochloride] | 42 | > 75 | –
3 | CCCS(=O)(=O)N1CCN(C2(CNC(=O)c3c(OC)cc(F)cc3SC)CCC(F)(F)CC2)CC1 [compound 138, N-((4,4-Difluoro-1-(4-(propylsulfonyl)piperazin-1-yl)cyclohexyl)methyl)-4-fluoro-2-methoxy-6-(methylthio)benzamide Hydrochloride] | 25 | > 75 | –
4 | CC(NC(=O)c1ccc(C(F)(F)F)cc1Cl)C1(N2CCN(S(=O)(=O)c3cn(C)nn3)CC2)CCC(F)(F)CC1 (centres unmarked) [compound 223, 2-Chloro-N-(1-(4,4-difluoro-1-(4-(1-methyl-1H-1,2,3-triazol-4-ylsulfonyl)piperazin-1-yl)cyclohexyl)ethyl)-4-(trifluoromethyl)benzamide Hydrochloride] | 33 | > 75 | –
5 | Cn1cnc(S(=O)(=O)N2CCN(C3(CNC(=O)c4c(F)cccc4F)CCCC3)CC2)c1 [compound 104, 2,6-Difluoro-N-((1-(4-(1-methyl-1H-imidazol-4-ylsulfonyl)piperazin-1-yl)cyclopentyl)methyl) benzamide Hydrochloride] | 346 | > 75 | –
6 | CCCS(=O)(=O)N1CCN(C2(CNC(=O)c3ccc(C)cc3C)CCCCC2)CC1 [compound 30, 2,4-Dimethyl-N-((1-(4-(propylsulfonyl)piperazin-1-yl)cyclohexyl)methyl) benzamide Hydrochloride] | 79 | > 75 | –
7 | CCCS(=O)(=O)N1CCN(C2(CNC(=O)c3c(OC)cc(F)cc3SC)CCOCC2)CC1 [compound 122, 4-Fluoro-2-methoxy-6-(methylthio)-N-((4-(4-(propylsulfonyl)piperazin-1-yl)tetrahydro-2H-pyran-4-yl)methyl)benzamide Hydrochloride] | 95 | > 75 | –
8 | CCCS(=O)(=O)N1CCN(C2(CNC(=O)c3c(OC)cc(F)cc3SC)CCCCC2)CC1 [compound 20, 4-Fluoro-2-methoxy-6-(methylthio)-N-((1-(4-(propylsulfonyl)piperazin-1-yl)cyclohexyl)methyl)benzamide Hydrochloride] | – | > 75 | 6
9 | CCCS(=O)(=O)N1CCN(C2(CNC(=O)c3ccccc3Cl)CCC(F)(F)CC2)CC1 [compound 139, 2-Chloro-N-((4,4-difluoro-1-(4-(propylsulfonyl)piperazin-1-yl)cyclohexyl)methyl) benzamide Hydrochloride] | 54 | > 75 | –
10 | CCCS(=O)(=O)N1CCN(C2(CNC(=O)c3c(F)cccc3OC)CCOCC2)CC1 [compound 123, 2-Fluoro-6-methoxy-N-((4-(4-(propyl-sulfonyl)piperazin-1-yl)tetrahydro-2H-pyran-4-yl)methyl)benzamide Hydrochloride] | 418 | > 75 | –
11 | CCCS(=O)(=O)N1CCN(C2(CNC(=O)c3ccc(F)cc3Cl)CCCCC2)CC1 [compound 12, 2-Chloro-4-fluoro-N-((1-(4-(propylsulfonyl)piperazin-1-yl)cyclohexyl)methyl) benzamide Hydrochloride] | 63 | > 75 | –
12 | CCCS(=O)(=O)N1CCN(C2(CNC(=O)Cc3ccc(Cl)cc3)CCCCC2)CC1 [compound 13, 2-(4-Chlorophenyl)-N-((1-(4-(propylsulfonyl)piperazin-1-yl)cyclohexyl)methyl) acetamide Hydrochloride] | 1270 | > 75 | –
13 | CCCS(=O)(=O)N1CCN(C2(CNC(=O)c3c(C)cc(F)cc3OC)CCCC2)CC1 [compound 75, 4-Fluoro-2-methoxy-6-methyl-N-((1-(4-(propylsulfonyl)piperazin-1-yl)cyclopentyl)methyl) benzamide Hydrochloride] | 268 | > 75 | –

The next lines start with results.

Row | IC50 [1, 3] [nM] | IC50 [2] [µM] | Structure (SMILES) | IC50 ([1]; GlyT-1 IC50 (nM)) [nM]
14 | 7 | > 75 | CC1CN(C2(CNC(=O)c3ccc(C(F)(F)F)cc3Cl)CCC(F)(F)CC2)CCN1S(=O)(=O)c1cn(C)nn1 (racemic) [compound 227, (±)-2-Chloro-N-((4,4-difluoro-1-(3-methyl-4-(1-methyl-1H-1,2,3-triazol-4-ylsulfonyl)piperazin-1-yl)cyclohexyl)methyl)-4-(trifluoromethyl)benzamide Hydrochloride] | –
15 | 4 | > 75 | Cn1cnc(S(=O)(=O)N2CCN(C3(CNC(=O)c4c(F)cccc4F)CCCCC3)CC2)c1 [compound 98, 2,6-Difluoro-N-((1-(4-(1-methyl-1H-imidazol-4-ylsulfonyl)piperazin-1-yl)cyclohexyl)methyl) benzamide Hydrochloride] | –
16 | 11 | > 75 | CCCS(=O)(=O)N1CCN(C2(CNC(=O)c3ccc(Cl)cc3Cl)CCCCCC2)CC1 [compound 60, 2,4-Dichloro-N-((1-(4-(propylsulfonyl)piperazin-1-yl)cycloheptyl)methyl) benzamide Hydrochloride] | –
17 | 1 | > 75 | Cn1cnc(S(=O)(=O)N2CCN(C3(CNC(=O)c4ccccc4OC(F)(F)F)CCC(F)(F)CC3)CC2)c1 [compound 161, N-((4,4-difluoro-1-(4-(1-methyl-1H-imidazol-4-ylsulfonyl)piperazin-1-yl)cyclohexyl)methyl)-2-(trifluoromethoxy) benzamide Hydrochloride] | –
18 | 15 | 39 | CCCS(=O)(=O)N1CCN(C2(CNC(=O)c3c(C)cc(F)cc3OC)CCCCC2)CC1 [compound 19, 4-Fluoro-2-methoxy-6-methyl-N-((1-(4-(propyl-sulfonyl)piperazin-1-yl)cyclohexyl)methyl) benzamide Hydrochloride] | –
19 | 1 | > 75 | Cn1cc(S(=O)(=O)N2CCN(C3(CNC(=O)c4cc(F)c(Cl)cc4Cl)CCC(F)(F)CC3)CC2)nn1 [compound 231, 2,4-Dichloro-N-((4,4-difluoro-1-(4-(1-methyl-1H-1,2,3-triazol-4-ylsulfonyl)piperazin-1-yl)cyclohexyl)methyl)-5-fluorobenzamide Hydrochloride] | –
20 | 22 | > 75 | CCCS(=O)(=O)N1CCN(C2(CNC(=O)c3ccc(F)cc3C(F)(F)F)CCCCCC2)CC1 [compound 71, 4-Fluoro-N-((1-(4-(propylsulfonyl)piperazin-1-yl)cycloheptyl)methyl)-2-(trifluoromethyl)benzamide Hydrochloride] | –
21 | 2 | > 75 | COc1cccc(F)c1C(=O)NCC1(N2CCN(S(=O)(=O)c3cn(C)cn3)CC2)CCCCC1 [compound 96, 2-Fluoro-6-methoxy-N-((1-(4-(1-methyl-1H-imidazol-4-ylsulfonyl)piperazin-1-yl)cyclohexyl)methyl) benzamide Hydrochloride] | –
22 | 2 | > 75 | Cn1cnc(S(=O)(=O)N2CCN(C3(CNC(=O)c4ccc(Cl)cc4Cl)CCCCC3)CC2)c1 [compound 97, 2,4-Dichloro-N-((1-(4-(1-methyl-1H-imidazol-4-ylsulfonyl)piperazin-1-yl)cyclohexyl)methyl) benzamide Hydrochloride] | –
